In US20230069963A1, “PYRAZOLO[1,5-A]PYRIMIDINE MACROCYCLIC COMPOUND” (priority 2018, published 2023):

The compounds below were run on RSV ATCC VR-1540 (A2) (assay: microbe, parasite or virus in culture). Conditions: human respiratory syncytial virus, HEp-2, 96 h; Hep2 cells, incubated for 4 days, CPE detected with XTT assay (absorbance 450 nm); read-out: EC50 (nmol/L) against RSV A2 strain.
Type: cell-based

First: CN1CCNC(C(F)(F)F)COc2ccc(Cl)cc2C(=O)N2CCCCC2c2cc3nc(N4CC(N)C4)cc1n3n2 (single isomer, unassigned) [Example 338]
Second: CN1CCNC(=O)COc2ccc(F)cc2C(=O)N2CCCC[C@H]2c2cc3nc(N4CC(N)C4)cc1n3n2 [Example 4, (18aS)-13-(3-aminoazetidin-1-yl)-2-fluoro-11-methyl-8,9,10,11,19,20,21,22-octahydro-18aH,24H-18,15-(metheno)pyrido[2,1-l]pyrimido[6,1-h][1,4,7,9,10,13]benzoxapentaazacyclohexadecine-7,24(6H)-dione]
The EC50 of the first is lower: 2.37 nmol/L for the first, 2.71 nmol/L for the second. The first is the more potent here.

First: CCC1c2cc3nc(N4CCC(N)C4)cc(n3n2)N(C)CCCCCOc2ccc(C)cc2C(=O)N1C (stereo in doubt) [Example 230, (18S)-3-[(3S)-3-aminopyrrolidin-1-yl]-18-ethyl-5,14,17-trimethyl-5,6,7,8,9,10,17,18-octahydro-16H-19,1-(metheno)pyrimido[6,1-h][1,7,9,10,13]benzoxatetraazacyclohexadecin-16-one]
Second: CN1CCN(C)c2cc(N3CC(N)C3)nc3cc(nn23)[C@@H]2CCCCN2C(=O)c2cc(F)ccc2OCC1=O [Example 8, (18aS)-13-(3-aminoazetidin-1-yl)-2-fluoro-8,11-dimethyl-8,9,10,11,19,20,21,22-octahydro-18aH,24H-18,15-(metheno)pyrido[2,1-l]pyrimido[6,1-h][1,4,7,9,10,13]benzoxapentaazacyclohexadecine-7,24(6H)-dione]
The EC50 of the first is higher: 11.8 nmol/L for the first, 6.3 nmol/L for the second. The second is the more potent here.

Compared with `CN1CCNC(=O)COc2ccc(F)cc2C(=O)N2CCCC[C@H]2c2cc3nc(N4CC(O)C4)cc1n3n2` [Example 3, (18aS)-2-fluoro-13-(3-hydroxyazetidin-1-yl)-J 1-methyl-8,9,10,11,19,20,21,22-octahydro-18aH,24H-18,15-(metheno)pyrido[2,1-l]pyrimido[6,1-h][1,4,7,9,10,13]benzoxapentaazacyclohexadecine-7,24(6H)-dione], `CNC1CN(c2cc3n4nc(cc4n2)[C@@H]2CCCCN2C(=O)c2cc(F)ccc2OCC(=O)NCCN3C)C1` [Example 5, (18aS)-2-fluoro-11-methyl-13-[3-(methylamino)azetidin-1-yl]-8,9,10,11,19,20,21,22-octahydro-18aH,24H-18,15-(metheno)pyrido[2,1-l]pyrimido[6,1-h][1,4,7,9,10,13]benzoxapentaazacyclohexadecine-7,24(6H)-dione] is higher in EC50: about 0.81 nmol/L for the first, 7.02 nmol/L for the second.

First: CCN1CCN(C)c2cc(N3CC(N)C3)nc3cc(nn23)[C@@H]2CCCCN2C(=O)c2cc(F)ccc2OCC1=O [Example 9, (18aS)-13-(3-aminoazetidin-1-yl)-8-ethyl-2-fluoro-11-methyl-8,9,10,11,19,20,21,22-octahydro-18aH,24H-18,15-(metheno)pyrido[2,1-l]pyrimido[6,1-h][1,4,7,9,10,13]benzoxapentaazacyclohexadecine-7,24(6H)-dione]
Second: CN1CC(C)(C)NC(=O)COc2ccc(F)cc2C(=O)N2CCCC[C@H]2c2cc3nc(N4CC(N)C4)cc1n3n2 [Example 11, (18aS)-13-(3-aminoazetidin-1-yl)-2-fluoro-9,9,11-trimethyl-8,9,10,11,19,20,21,22-octahydro-18aH,24H-18,15-(metheno)pyrido[2,1-l]pyrimido[6,1-h][1,4,7,9,10,13]benzoxapentaazacyclohexadecine-7,24(6H)-dione]
The EC50 of the first is higher: 6.34 nmol/L for the first, 1.56 nmol/L for the second.

First: CC1Oc2ccc(F)cc2C(=O)N2CCCCC2c2cc3nc(N4CC(N)C4)cc(n3n2)N(C)CCNC1=O [Example 12, (18aS)-13-(3-aminoazetidin-1-yl)-2-fluoro-6,11-dimethyl-8,9,10,11,19,20,21,22-octahydro-18aH,24H-18,15-(metheno)pyrido[2,1-l]pyrimido[6,1-h][1,4,7,9,10,13]benzoxapentaazacyclohexadecine-7,24(6H)-dione]
Second: NC1CN(c2cc3n4nc(cc4n2)[C@@H]2CCCCN2C(=O)c2cc(F)ccc2OCC(=O)NCCN3C2CC2)C1 [Example 14, (18aS)-13-(3-aminoazetidin-1-yl)-11-cyclopropyl-2-fluoro-8,9,10,11,19,20,21,22-octahydro-18aH,24H-18,15-(metheno)pyrido[2,1-l]pyrimido[6,1-h][1,4,7,9,10,13]benzoxapentaazacyclohexadecine-7,24(6H)-dione]
The EC50 of the first is lower: about 2 nmol/L for the first, 2.31 nmol/L for the second.

First: COc1cc2n3nc(cc3n1)[C@@H]1CCCCN1C(=O)c1cc(F)ccc1OCC(=O)NCCN2C [Example 20, (18aS)-2-fluoro-I 3-methoxy-11-methyl-8,9,10,11,19,20,21,22-octahydro-18aH,24H-18,15-(metheno)pyrido[2,1-l]pyrimido[6,1-h][1,4,7,9,10,13]benzoxapentaazacyclohexadecine-7,24(6H)-dione]
Second: CN1CCNC(=O)COc2ccc(F)cc2C(=O)N2CCCC[C@H]2c2cc3nc(CN)cc1n3n2 [Example 25, (18aS)-13-(aminomethyl)-2-fluoro-11-methyl-8,9,10,11,19,20,21,22-octahydro-18aH,24H-18,15-(metheno)pyrido[2,1-l]pyrimido[6,1-h][1,4,7,9,10,13]benzoxapentaazacyclohexadecine-7,24(6H)-dione]
The EC50 of the first is lower: 1.26 nmol/L for the first, about 14 nmol/L for the second. The first is the more potent here.

Compared with `CCc1ccc2c(c1)C(=O)N1CCCC[C@H]1c1cc3nc(OCCN)cc(n3n1)N(C)CCNC(=O)CO2` [Example 50, (18aS)-13-(2-aminoethoxy)-2-ethyl-1-methyl-8,9,10,11,19,20,21,22-octahydro-18aH,24H-18,15-(metheno)pyrido[2,1-l]pyrimido[6,1-h][1,4,7,9,10,13]benzoxapentaazacyclohexadecine-7,24(6H)-dione], `COc1ccc2c(c1)C(=O)N1CCCC[C@H]1c1cc3nc(N4CCC4)cc(n3n1)N(C)CCNC(=O)CO2` [Example 51, (18aS)-13-(azetidin-1-yl)-2-methoxy-11-methyl-8,9,10,11,19,20,21,22-octahydro-18aH,24H-18,15-(metheno)pyrido[2,1-l]pyrimido[6,1-h][1,4,7,9,10,13]benzoxapentaazacyclohexadecine-7,24(6H)-dione] is lower in EC50: 2.18 nmol/L for the first, 1.21 nmol/L for the second.

Compared with `CN1CCNC(=O)COc2ccc(C(C)(F)F)cc2C(=O)N2CCCC[C@H]2c2cc3nc(N4CCC4)cc1n3n2` [Example 54, (18aS)-13-(azetidin-1-yl)-2-(1,1-difluoroethyl)-11-methyl-8,9,10,11,19,20,21,22-octahydro-18aH,24H-18,15-(metheno)pyrido[2,1-l]pyrimido[6,1-h][1,4,7,9,10,13]benzoxapentaazacyclohexadecine-7,24(6H)-dione], `Cc1c(N2CC(N)C2)nc2cc3nn2c1N(C)CCNC(=O)COc1ccc(F)cc1C(=O)N1CCCC[C@@H]31` [Example 61, (18aS)-13-(3-aminoazetidin-1-yl)-2-fluoro-11,12-dimethyl-8,9,10,11,19,20,21,22-octahydro-18aH,24H-18,15-(metheno)pyrido[2,1-l]pyrimido[6,1-h][1,4,7,9,10,13]benzoxapentaazacyclohexadecine-7,24(6H)-dione] is lower in EC50: 3.2 nmol/L for the first, 1.77 nmol/L for the second.

With `Cc1c(N2CCC2)nc2cc3nn2c1N(C)CCN(C)C(=O)COc1ccc(F)cc1C(=O)N1CCCC[C@@H]31` [Example 63, (18aS)-13-(azetidin-1-yl)-2-fluoro-8,11,12-trimethyl-8,9,10,11,19,20,21,22-octahydro-18aH, 24H-18,15-(metheno)pyrido[2,1-l]pyrimido[6,1-h][1,4,7,9,10,13]benzoxapentaazacyclohexadecine-7,24(6H)-dione] the EC50 was 2.49 nmol/L.
